In ChEMBL document CHEMBL4049403, “Oligo-aspartic acid conjugates with benzo[c][2,6]naphthyridine-8-carboxylic acid scaffold as picomolar inhibitors of CK2” (Bioorg Med Chem, 2017):
Where a SMILES comes first, the peptide text is derived from it. The star is where a group is joined. X1 = O=C(O)c1ccc2c(c1)nc(OCCCCCCCCC(=O)*)c1ccncc12

Tests used:
[1] = target: Testis-specific serine/threonine-protein kinase 1 (Homo sapiens) (UniProt Q9BXA7); test: Inhibition of human TSSK1 assessed as residual activity at 1 uM in presence of [33P]ATP by filter binding assay relative to control
Chain of Testis-specific serine/threonine-protein kinase 1 (Homo sapiens) (Q9BXA7 whole entry): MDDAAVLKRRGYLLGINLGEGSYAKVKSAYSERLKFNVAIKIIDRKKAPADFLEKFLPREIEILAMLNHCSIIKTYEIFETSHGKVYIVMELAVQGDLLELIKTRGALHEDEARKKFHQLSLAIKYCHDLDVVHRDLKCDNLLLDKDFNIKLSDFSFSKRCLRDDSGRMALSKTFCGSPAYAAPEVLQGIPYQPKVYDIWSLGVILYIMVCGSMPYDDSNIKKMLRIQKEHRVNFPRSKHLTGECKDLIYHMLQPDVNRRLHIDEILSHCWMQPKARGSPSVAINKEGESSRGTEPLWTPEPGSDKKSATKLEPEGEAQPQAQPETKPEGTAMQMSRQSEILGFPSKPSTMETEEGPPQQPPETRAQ

[2] = target: Serine/threonine-protein kinase TAO1 (Homo sapiens) (UniProt Q7L7X3); test: Inhibition of human TAO1 assessed as residual activity at 1 uM in presence of 33P-ATP by filter-binding assay relative to control
[3] = target: Ribosomal protein S6 kinase alpha-5 (Homo sapiens) (UniProt O75582); test: Inhibition of human MSK1 assessed as residual activity at 1 uM in presence of 33P-ATP by filter-binding assay relative to control
[4] = target: T1, Casein kinase II subunit alpha (Homo sapiens, UniProt P68400); test: Inhibition of ARC-1504 binding to CK2alpha (unknown origin) (1 to 335 residues) measured after 15 mins by fluorescence anisotropic method
T1 sequence (P68400 whole entry, the tested form may be a part): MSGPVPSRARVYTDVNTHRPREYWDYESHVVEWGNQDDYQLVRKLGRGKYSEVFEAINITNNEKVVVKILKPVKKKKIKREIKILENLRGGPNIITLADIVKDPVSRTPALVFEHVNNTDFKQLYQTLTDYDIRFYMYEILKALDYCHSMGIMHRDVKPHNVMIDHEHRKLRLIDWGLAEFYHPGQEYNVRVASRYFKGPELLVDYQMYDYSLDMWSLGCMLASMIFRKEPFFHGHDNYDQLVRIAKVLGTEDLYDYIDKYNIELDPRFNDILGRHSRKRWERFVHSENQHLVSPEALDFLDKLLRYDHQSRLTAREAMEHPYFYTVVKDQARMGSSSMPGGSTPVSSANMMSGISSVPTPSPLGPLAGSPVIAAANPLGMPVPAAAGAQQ

[5] = organism: Homo sapiens; test: Inhibition of human PHK assessed as residual activity at 1 uM in presence of [33P]ATP by filter binding assay relative to control
[6] = target: Mitogen-activated protein kinase 12 (Homo sapiens) (UniProt P53778); test: Inhibition of human P38g MAPK assessed as residual activity at 1 uM in presence of [33P]ATP by filter binding assay relative to control
[7] = target: Tyrosine-protein kinase Yes (Homo sapiens) (UniProt P07947); test: Inhibition of human YES1 assessed as residual activity at 1 uM in presence of [33P]ATP by filter binding assay relative to control
Chain of Tyrosine-protein kinase Yes (Homo sapiens) (P07947 2-543 limits assumed): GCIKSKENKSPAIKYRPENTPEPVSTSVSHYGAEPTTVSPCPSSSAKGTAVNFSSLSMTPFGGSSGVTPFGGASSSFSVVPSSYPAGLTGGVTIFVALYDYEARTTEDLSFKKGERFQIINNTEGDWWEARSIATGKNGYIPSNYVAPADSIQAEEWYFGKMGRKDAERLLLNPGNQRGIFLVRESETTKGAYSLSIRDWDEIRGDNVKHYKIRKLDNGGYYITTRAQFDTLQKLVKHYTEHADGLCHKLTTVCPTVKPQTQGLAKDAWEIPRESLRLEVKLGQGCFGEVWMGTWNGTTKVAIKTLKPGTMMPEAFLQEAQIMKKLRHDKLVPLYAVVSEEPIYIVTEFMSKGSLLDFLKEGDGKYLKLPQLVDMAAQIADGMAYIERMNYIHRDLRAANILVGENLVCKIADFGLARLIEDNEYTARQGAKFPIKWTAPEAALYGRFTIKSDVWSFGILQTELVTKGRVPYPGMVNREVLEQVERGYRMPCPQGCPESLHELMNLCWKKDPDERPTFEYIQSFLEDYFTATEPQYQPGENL

[8] = target: Dual specificity tyrosine-phosphorylation-regulated kinase 2 (Homo sapiens) (UniProt Q92630); test: Inhibition of human DYRK2 assessed as residual activity at 1 uM in presence of 33P-ATP by filter-binding assay relative to control
[9] = target: MAP kinase-interacting serine/threonine-protein kinase 1 (Homo sapiens) (UniProt Q9BUB5); test: Inhibition of human MNK1 assessed as residual activity at 1 uM in presence of [33P]ATP by filter binding assay relative to control
[10] = target: Calcium/calmodulin-dependent protein kinase kinase 2 (Homo sapiens) (UniProt Q96RR4); test: Inhibition of human CAMKKb assessed as residual activity at 1 uM in presence of [33P]ATP by filter binding assay relative to control
[11] = target: Casein kinase I isoform gamma-2 (Homo sapiens) (UniProt P78368); test: Inhibition of human CK1gamma2 assessed as residual activity at 1 uM in presence of [33P]ATP by filter binding assay relative to control
Chain of Casein kinase I isoform gamma-2 (Homo sapiens) (P78368 whole entry, looked up, canonical isoform): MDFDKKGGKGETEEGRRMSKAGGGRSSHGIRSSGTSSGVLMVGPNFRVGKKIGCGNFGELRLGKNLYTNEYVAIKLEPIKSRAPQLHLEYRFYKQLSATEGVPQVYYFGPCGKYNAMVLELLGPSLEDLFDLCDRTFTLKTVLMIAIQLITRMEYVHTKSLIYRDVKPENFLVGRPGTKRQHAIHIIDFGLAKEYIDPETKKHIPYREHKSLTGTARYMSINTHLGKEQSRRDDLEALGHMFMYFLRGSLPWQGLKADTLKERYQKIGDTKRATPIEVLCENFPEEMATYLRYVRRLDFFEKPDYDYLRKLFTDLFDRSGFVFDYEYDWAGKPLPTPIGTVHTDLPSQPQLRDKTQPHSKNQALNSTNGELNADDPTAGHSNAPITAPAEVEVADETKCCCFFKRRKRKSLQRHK

[12] = target: Insulin receptor-related protein (Homo sapiens) (UniProt P14616); test: Inhibition of human IRR assessed as residual activity at 1 uM in presence of [33P]ATP by filter binding assay relative to control
[13] = target: Protein kinase C gamma type (Homo sapiens) (UniProt P05129); test: Inhibition of human PKCgamma assessed as residual activity at 1 uM in presence of [33P]ATP by filter binding assay relative to control
[14] = target: CDK2/Cyclin A2 (Homo sapiens) (UniProt P24941+P20248); test: Inhibition of human CDK2/Cyclin A assessed as residual activity at 1 uM in presence of [33P]ATP by filter binding assay relative to control; format: protein-complex assay
[15] = target: Serine/threonine-protein kinase OSR1 (Homo sapiens) (UniProt O95747); test: Inhibition of human OSR1 assessed as residual activity at 1 uM in presence of [33P]ATP by filter binding assay relative to control
[16] = target: RAC-alpha serine/threonine-protein kinase (Homo sapiens) (UniProt P31749); test: Inhibition of human PKBa assessed as residual activity at 1 uM in presence of [33P]ATP by filter binding assay relative to control
[17] = target: Dual specificity testis-specific protein kinase 1 (Homo sapiens) (UniProt Q15569); test: Inhibition of human TESK1 assessed as residual activity at 1 uM in presence of [33P]ATP by filter binding assay relative to control
[18] = target: Mitogen-activated protein kinase kinase kinase 7 (Homo sapiens) (UniProt O43318); test: Inhibition of human TAK1 assessed as residual activity at 1 uM in presence of [33P]ATP by filter binding assay relative to control
[19] = target: Homeodomain-interacting protein kinase 1 (Homo sapiens) (UniProt Q86Z02); test: Inhibition of human HIPK1 assessed as residual activity at 1 uM in presence of [33P]ATP by filter binding assay relative to control
[20] = target: Serine/threonine-protein kinase tousled-like 1 (Homo sapiens) (UniProt Q9UKI8); test: Inhibition of human TLK1 assessed as residual activity at 1 uM in presence of 33P-ATP by filter-binding assay relative to control
[21] = target: Mitogen-activated protein kinase 11 (Homo sapiens) (UniProt Q15759); test: Inhibition of human P38b MAPK assessed as residual activity at 1 uM in presence of [33P]ATP by filter binding assay relative to control
Chain of Mitogen-activated protein kinase 11 (Homo sapiens) (Q15759 whole entry): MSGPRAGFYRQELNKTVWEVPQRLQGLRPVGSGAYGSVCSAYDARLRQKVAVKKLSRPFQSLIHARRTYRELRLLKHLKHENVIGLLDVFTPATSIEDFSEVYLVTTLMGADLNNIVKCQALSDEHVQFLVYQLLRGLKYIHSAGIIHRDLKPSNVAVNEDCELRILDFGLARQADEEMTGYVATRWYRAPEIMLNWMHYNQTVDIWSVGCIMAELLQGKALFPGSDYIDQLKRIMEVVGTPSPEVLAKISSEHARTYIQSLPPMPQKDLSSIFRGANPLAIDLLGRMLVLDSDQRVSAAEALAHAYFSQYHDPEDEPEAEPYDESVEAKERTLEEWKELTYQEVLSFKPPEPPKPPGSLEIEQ

[22] = target: Tau-tubulin kinase 2 (Homo sapiens) (UniProt Q6IQ55); test: Inhibition of human TTBK2 assessed as residual activity at 1 uM in presence of [33P]ATP by filter binding assay relative to control
Chain of Tau-tubulin kinase 2 (Homo sapiens) (Q6IQ55 whole entry): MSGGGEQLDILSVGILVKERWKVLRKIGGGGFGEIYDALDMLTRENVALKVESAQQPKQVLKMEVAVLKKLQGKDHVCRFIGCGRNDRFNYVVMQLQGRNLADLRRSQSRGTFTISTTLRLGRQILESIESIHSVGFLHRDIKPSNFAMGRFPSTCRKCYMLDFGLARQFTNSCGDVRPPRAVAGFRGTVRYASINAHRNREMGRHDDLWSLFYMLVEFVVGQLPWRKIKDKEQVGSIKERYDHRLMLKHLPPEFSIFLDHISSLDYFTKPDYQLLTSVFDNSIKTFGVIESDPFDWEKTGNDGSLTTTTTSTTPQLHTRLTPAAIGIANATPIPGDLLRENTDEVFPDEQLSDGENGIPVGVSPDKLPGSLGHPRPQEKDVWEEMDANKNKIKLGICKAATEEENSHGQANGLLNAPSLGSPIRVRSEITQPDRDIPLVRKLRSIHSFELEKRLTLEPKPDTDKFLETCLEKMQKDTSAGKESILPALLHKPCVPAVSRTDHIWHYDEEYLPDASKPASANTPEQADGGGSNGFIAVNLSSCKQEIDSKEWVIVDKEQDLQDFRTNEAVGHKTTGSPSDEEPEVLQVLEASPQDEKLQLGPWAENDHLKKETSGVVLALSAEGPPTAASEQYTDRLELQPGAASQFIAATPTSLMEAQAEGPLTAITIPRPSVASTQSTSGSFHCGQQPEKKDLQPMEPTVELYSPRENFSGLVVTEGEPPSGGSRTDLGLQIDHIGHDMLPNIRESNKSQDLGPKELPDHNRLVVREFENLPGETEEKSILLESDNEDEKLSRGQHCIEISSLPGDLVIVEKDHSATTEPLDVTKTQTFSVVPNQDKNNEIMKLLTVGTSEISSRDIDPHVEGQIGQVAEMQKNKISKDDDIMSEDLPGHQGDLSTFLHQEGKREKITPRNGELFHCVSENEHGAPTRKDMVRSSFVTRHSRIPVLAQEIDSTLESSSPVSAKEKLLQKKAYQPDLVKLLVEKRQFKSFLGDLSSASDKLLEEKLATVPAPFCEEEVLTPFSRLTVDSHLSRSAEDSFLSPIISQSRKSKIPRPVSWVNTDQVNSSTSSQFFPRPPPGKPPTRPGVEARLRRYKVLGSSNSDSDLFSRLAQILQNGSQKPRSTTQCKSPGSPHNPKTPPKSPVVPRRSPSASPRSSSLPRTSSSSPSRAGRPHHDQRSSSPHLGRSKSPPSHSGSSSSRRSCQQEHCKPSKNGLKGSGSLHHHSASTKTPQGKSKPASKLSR

[23] = target: Ephrin type-A receptor 2 (Homo sapiens) (UniProt P29317); test: Inhibition of human EPHA2 assessed as residual activity at 1 uM in presence of [33P]ATP by filter binding assay relative to control
[24] = target: Serine/threonine-protein kinase SIK2 (Homo sapiens) (UniProt Q9H0K1); test: Inhibition of human SIK2 assessed as residual activity at 1 uM in presence of [33P]ATP by filter binding assay relative to control
[25] = target: T1, Casein kinase II subunit alpha; test: Inhibition of CK2alpha (unknown origin) (1 to 335 residues) using 5-TAMRA-RADDSDDDDD as substrate after 30 mins by fluorescence imaging method
[26] = target: Discoidin domain-containing receptor 2 (Homo sapiens) (UniProt Q16832); test: Inhibition of human DDR2 assessed as residual activity at 1 uM in presence of [33P]ATP by filter binding assay relative to control
[27] = target: Ephrin type-B receptor 3 (Homo sapiens) (UniProt P54753); test: Inhibition of human EPHB3 assessed as residual activity at 1 uM in presence of 33P-ATP by filter-binding assay relative to control
[28] = target: Protein-tyrosine kinase 6 (Homo sapiens) (UniProt Q13882); test: Inhibition of human BRK assessed as residual activity at 1 uM in presence of 33P-ATP by filter-binding assay relative to control
Chain of Protein-tyrosine kinase 6 (Homo sapiens) (Q13882 whole entry, looked up): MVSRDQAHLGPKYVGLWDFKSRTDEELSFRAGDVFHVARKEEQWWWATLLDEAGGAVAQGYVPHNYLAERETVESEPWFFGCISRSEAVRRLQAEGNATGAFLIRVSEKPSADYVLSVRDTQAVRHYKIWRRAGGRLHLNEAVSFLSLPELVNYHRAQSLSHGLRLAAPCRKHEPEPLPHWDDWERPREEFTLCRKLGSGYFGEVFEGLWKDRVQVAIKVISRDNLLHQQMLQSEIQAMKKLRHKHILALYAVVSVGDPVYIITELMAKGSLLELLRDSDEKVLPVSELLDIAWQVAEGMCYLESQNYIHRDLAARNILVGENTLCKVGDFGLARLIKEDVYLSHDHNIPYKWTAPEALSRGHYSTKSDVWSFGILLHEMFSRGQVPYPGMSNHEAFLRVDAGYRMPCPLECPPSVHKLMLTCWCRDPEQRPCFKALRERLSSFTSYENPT

[29] = target: NUAK family SNF1-like kinase 1 (Homo sapiens) (UniProt O60285); test: Inhibition of human NUAK1 assessed as residual activity at 1 uM in presence of [33P]ATP by filter binding assay relative to control
Chain of NUAK family SNF1-like kinase 1 (Homo sapiens) (O60285 whole entry): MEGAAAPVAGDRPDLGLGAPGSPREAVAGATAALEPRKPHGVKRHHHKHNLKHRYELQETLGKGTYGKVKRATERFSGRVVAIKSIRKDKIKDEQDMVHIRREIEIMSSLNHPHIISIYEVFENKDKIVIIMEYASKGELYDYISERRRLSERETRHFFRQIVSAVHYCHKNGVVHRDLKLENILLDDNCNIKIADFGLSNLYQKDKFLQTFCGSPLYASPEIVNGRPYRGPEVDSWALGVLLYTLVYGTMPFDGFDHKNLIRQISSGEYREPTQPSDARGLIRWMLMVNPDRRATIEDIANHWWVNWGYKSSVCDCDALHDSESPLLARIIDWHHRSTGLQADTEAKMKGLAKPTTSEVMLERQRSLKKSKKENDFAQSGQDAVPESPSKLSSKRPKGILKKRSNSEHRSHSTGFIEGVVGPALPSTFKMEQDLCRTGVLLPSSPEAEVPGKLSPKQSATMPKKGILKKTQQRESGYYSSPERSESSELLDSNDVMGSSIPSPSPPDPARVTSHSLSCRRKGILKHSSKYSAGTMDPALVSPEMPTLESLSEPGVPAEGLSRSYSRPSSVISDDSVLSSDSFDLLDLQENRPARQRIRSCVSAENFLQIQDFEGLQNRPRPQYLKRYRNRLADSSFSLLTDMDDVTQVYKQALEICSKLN

[30] = target: Serine/threonine-protein kinase Chk2 (Homo sapiens) (UniProt O96017); test: Inhibition of human CHK2 assessed as residual activity at 1 uM in presence of [33P]ATP by filter binding assay relative to control
Chain of Serine/threonine-protein kinase Chk2 (Homo sapiens) (O96017 whole entry): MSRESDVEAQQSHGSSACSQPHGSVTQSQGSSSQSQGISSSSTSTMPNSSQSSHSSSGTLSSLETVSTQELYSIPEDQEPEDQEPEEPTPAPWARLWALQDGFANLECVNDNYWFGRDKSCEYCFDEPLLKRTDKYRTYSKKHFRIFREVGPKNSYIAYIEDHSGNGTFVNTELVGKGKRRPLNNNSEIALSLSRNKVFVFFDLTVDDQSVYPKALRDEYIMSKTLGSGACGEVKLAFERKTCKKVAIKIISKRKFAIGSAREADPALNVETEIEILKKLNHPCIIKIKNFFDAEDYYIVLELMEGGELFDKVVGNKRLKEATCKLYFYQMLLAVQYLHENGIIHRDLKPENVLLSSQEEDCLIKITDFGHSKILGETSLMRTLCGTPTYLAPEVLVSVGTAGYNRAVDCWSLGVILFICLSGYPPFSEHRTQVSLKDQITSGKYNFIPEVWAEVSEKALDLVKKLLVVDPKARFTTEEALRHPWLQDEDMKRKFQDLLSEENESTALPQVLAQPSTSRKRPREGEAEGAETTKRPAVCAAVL

Activity [1]: 84%
Activity [2]: 65%
Activity [3]: 58%
Kd ([4]; read-out: Kd): 0.037 nM
Kd ([4]; read-out: pKd (converted)): 0.0316 nM
Activity [5]: 97%
Activity [6]: 107%
Activity [7]: 91%
Activity [8]: 5%
Activity [9]: 67%
Activity [10]: 81%
Activity [11]: 86%
Activity [12]: 92%
Activity [13]: 94%
Activity [14]: 82%
Activity [15]: 111%
Activity [16]: 89%
Activity [17]: 94%
Activity [18]: 80%
Activity [19]: 86%
Activity [20]: 63%
Activity [21]: 107%
Activity [22]: 101%
Activity [23]: 87%
Activity [24]: 99%
IC50 [25]: 4 nM
Activity [26]: 117%
Activity [27]: 56%
Activity [28]: 51%
Activity [29]: 75%
Activity [30]: 92%
SMILES: NCCCC[C@H](NC(=O)[C@H](CC(=O)O)NC(=O)[C@H](CC(=O)O)NC(=O)[C@H](CC(=O)O)NC(=O)[C@H](CC(=O)O)NC(=O)[C@H](CC(=O)O)NC(=O)[C@H](CC(=O)O)NC(=O)CCCCCCCCOc1nc2cc(C(=O)O)ccc2c2cnccc12)C(=O)O (X1-DDDDDDK-OH)
